# Legend:
# Assay in all cases: Kinase panel
# Type in all cases: biochemical
# Details in all cases: read-out: % Residual Activity
# [1] = target: T1, cKit(D816H)(h) (Homo sapiens, UniProt P10721, D816H)
# T1 construct: purchased Eurofins (KinaseProfiler)
# Protocol: (§1) Kinome-wide selectivity of rilpivirine was measured using the kinase screening and profiling service of Eurofins Scientific (Le bois l’Evêque 86600. Celle-Lévescault, France) and Ki values were determined using radioisotope-based assays by Reaction Biology Corporation (Malvern, PA, USA). The experimental details of Eurofin Scientific and Reaction Biology services for relevant assays are available at https://www.eurofinsdiscoveryservices.com/services/in-Vitro-assays/kinases/kinase-profiler (accessed on 7 July 2021) and https://www.reactionbiology.com (accessed on 7 July 2021), respectively. Ki values were estimated from the corresponding IC50 values using the Cheng–Prusoff equation [21] and the Km (ATP) of individual kinase was used for IC50 determination.
# [2] = target: T2, MEKK3(h) (Homo sapiens, UniProt Q99759)
# T2 construct: purchased Eurofins (KinaseProfiler)
# Protocol: as §1
# [3] = target: T3, cSRC(h) (Homo sapiens, UniProt P12931)
# T3 construct: purchased Eurofins (KinaseProfiler)
# Protocol: as §1
# [4] = target: T4, WNK1(h) (Homo sapiens, UniProt Q9H4A3)
# T4 construct: purchased Eurofins (KinaseProfiler)
# Protocol: as §1
# [5] = target: T5, PKBγ(h) (Homo sapiens, UniProt Q9Y243)
# T5 construct: purchased Eurofins (KinaseProfiler)
# Protocol: as §1
# [6] = target: T6, EphB4(h) (Homo sapiens, UniProt P54760)
# T6 construct: purchased Eurofins (KinaseProfiler)
# Protocol: as §1
# [7] = target: T7, DMPK(h) (Homo sapiens, UniProt Q09013)
# T7 construct: purchased Eurofins (KinaseProfiler)
# Protocol: as §1
# [8] = target: T8, CDK3/cyclinE(h) (Homo sapiens, UniProt Q00526)
# T8 construct: purchased Eurofins (KinaseProfiler)
# Protocol: as §1
# [9] = target: T9, PEK(h) (Homo sapiens, UniProt Q9NZJ5)
# T9 construct: purchased Eurofins (KinaseProfiler)
# Protocol: as §1
# [10] = target: T10, PKCβI(h) (Homo sapiens, UniProt P05771)
# T10 construct: purchased Eurofins (KinaseProfiler)
# Protocol: as §1
# [11] = target: T11, AMPKα1(h) (Homo sapiens, UniProt Q13131)
# T11 construct: purchased Eurofins (KinaseProfiler)
# Protocol: as §1
# [12] = target: T12, ALK(h) (Homo sapiens, UniProt Q9UM73)
# T12 construct: purchased Eurofins (KinaseProfiler)
# Protocol: as §1
# [13] = target: T13, SLK(h) (Homo sapiens, UniProt Q9H2G2)
# T13 construct: purchased Eurofins (KinaseProfiler)
# Protocol: as §1
# [14] = target: T14, FGFR2(h) (Homo sapiens, UniProt P21802)
# T14 construct: purchased Eurofins (KinaseProfiler)
# Protocol: as §1
# [15] = target: T15, PAK5(h) (Homo sapiens, UniProt Q9P286)
# T15 construct: purchased Eurofins (KinaseProfiler)
# Protocol: as §1
# [16] = target: T16, HRI(h) (Homo sapiens, UniProt Q9BQI3)
# T16 construct: purchased Eurofins (KinaseProfiler)
# Protocol: as §1
# [17] = target: T17, PAK3(h) (Homo sapiens, UniProt O75914)
# T17 construct: purchased Eurofins (KinaseProfiler)
# Protocol: as §1
# [18] = target: T18, HPK1(h) (Homo sapiens, UniProt Q92918)
# T18 construct: purchased Eurofins (KinaseProfiler)
# Protocol: as §1
# [19] = target: T19, MAPK2(h) (Homo sapiens, UniProt P28482)
# T19 construct: purchased Eurofins (KinaseProfiler)
# Protocol: as §1
# [20] = target: T20, EphB1(h) (Homo sapiens, UniProt P54762)
# T20 construct: purchased Eurofins (KinaseProfiler)
# Protocol: as §1
# [21] = target: T21, B-Raf(h) (Homo sapiens, UniProt P15056)
# T21 construct: purchased Eurofins (KinaseProfiler)
# Protocol: as §1
# [22] = target: T22, FGFR4(h) (Homo sapiens, UniProt P22455)
# T22 construct: purchased Eurofins (KinaseProfiler)
# Protocol: as §1
# [23] = target: T23, PDK1(h) (Homo sapiens, UniProt O15530)
# T23 construct: purchased Eurofins (KinaseProfiler)
# Protocol: as §1
# [24] = target: T24, TBK1(h) (Homo sapiens, UniProt Q9UHD2)
# T24 construct: purchased Eurofins (KinaseProfiler)
# Protocol: as §1
# [25] = target: T25, NDR2(h) (Homo sapiens, UniProt Q9Y2H1)
# T25 construct: purchased Eurofins (KinaseProfiler)
# Protocol: as §1
# [26] = target: T26, CHK1(h) (Homo sapiens, UniProt O14757)
# T26 construct: purchased Eurofins (KinaseProfiler)
# Protocol: as §1
# [27] = target: T27, SGK(h) (Homo sapiens, UniProt O00141)
# T27 construct: purchased Eurofins (KinaseProfiler)
# Protocol: as §1
# [28] = target: T28, IGF-1R(h), activated (Homo sapiens, UniProt P08069)
# T28 construct: purchased Eurofins (KinaseProfiler)
# Protocol: as §1
# [29] = target: T29, Aurora-B(h) (Homo sapiens, UniProt Q96GD4)
# T29 construct: purchased Eurofins (KinaseProfiler)
# Protocol: as §1
# [30] = target: T30, STK16(h) (Homo sapiens, UniProt O75716)
# T30 construct: purchased Eurofins (KinaseProfiler)
# Protocol: as §1
# [31] = target: T31, Tie2(Y897S)(h) (Homo sapiens, UniProt Q02763, Y897S)
# T31 construct: purchased Eurofins (KinaseProfiler)
# Protocol: as §1
# [32] = target: T32, ARK5(h) (Homo sapiens, UniProt O60285)
# T32 construct: purchased Eurofins (KinaseProfiler)
# Protocol: as §1
# [33] = target: T33, SBK1(h) (Homo sapiens, UniProt Q52WX2)
# T33 construct: purchased Eurofins (KinaseProfiler)
# Protocol: as §1
# [34] = target: T34, Flt1(h) (Homo sapiens, UniProt P17948)
# T34 construct: purchased Eurofins (KinaseProfiler)
# Protocol: as §1
# [35] = target: T35, TAO3(h) (Homo sapiens, UniProt Q9H2K8)
# T35 construct: purchased Eurofins (KinaseProfiler)
# Protocol: as §1
# [36] = target: T36, Ros(h) (Homo sapiens, UniProt P08922)
# T36 construct: purchased Eurofins (KinaseProfiler)
# Protocol: as §1
# [37] = target: T37, Cdc7/cyclinB1(h) (Homo sapiens, UniProt O00311)
# T37 construct: purchased Eurofins (KinaseProfiler)
# Protocol: as §1
# [38] = target: T38, CK1ε(h) (Homo sapiens, UniProt P49674)
# T38 construct: purchased Eurofins (KinaseProfiler)
# Protocol: as §1
# [39] = target: T39, NUAK2(h) (Homo sapiens, UniProt Q9H093)
# T39 construct: purchased Eurofins (KinaseProfiler)
# Protocol: as §1
# T26 sequence (O14757 whole entry): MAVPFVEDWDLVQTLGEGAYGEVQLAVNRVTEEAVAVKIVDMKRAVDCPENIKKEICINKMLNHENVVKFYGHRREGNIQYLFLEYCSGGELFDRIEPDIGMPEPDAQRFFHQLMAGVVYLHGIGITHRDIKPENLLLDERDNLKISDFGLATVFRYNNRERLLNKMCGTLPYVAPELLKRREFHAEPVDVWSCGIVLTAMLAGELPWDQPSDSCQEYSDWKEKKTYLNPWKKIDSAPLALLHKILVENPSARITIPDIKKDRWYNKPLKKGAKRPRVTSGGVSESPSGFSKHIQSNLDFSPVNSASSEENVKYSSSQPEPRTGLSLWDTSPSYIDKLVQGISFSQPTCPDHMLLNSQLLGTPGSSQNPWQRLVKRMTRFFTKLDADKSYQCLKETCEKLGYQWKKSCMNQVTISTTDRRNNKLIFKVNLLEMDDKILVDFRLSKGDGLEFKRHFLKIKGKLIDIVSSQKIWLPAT
# T36 sequence (P08922 28-2347): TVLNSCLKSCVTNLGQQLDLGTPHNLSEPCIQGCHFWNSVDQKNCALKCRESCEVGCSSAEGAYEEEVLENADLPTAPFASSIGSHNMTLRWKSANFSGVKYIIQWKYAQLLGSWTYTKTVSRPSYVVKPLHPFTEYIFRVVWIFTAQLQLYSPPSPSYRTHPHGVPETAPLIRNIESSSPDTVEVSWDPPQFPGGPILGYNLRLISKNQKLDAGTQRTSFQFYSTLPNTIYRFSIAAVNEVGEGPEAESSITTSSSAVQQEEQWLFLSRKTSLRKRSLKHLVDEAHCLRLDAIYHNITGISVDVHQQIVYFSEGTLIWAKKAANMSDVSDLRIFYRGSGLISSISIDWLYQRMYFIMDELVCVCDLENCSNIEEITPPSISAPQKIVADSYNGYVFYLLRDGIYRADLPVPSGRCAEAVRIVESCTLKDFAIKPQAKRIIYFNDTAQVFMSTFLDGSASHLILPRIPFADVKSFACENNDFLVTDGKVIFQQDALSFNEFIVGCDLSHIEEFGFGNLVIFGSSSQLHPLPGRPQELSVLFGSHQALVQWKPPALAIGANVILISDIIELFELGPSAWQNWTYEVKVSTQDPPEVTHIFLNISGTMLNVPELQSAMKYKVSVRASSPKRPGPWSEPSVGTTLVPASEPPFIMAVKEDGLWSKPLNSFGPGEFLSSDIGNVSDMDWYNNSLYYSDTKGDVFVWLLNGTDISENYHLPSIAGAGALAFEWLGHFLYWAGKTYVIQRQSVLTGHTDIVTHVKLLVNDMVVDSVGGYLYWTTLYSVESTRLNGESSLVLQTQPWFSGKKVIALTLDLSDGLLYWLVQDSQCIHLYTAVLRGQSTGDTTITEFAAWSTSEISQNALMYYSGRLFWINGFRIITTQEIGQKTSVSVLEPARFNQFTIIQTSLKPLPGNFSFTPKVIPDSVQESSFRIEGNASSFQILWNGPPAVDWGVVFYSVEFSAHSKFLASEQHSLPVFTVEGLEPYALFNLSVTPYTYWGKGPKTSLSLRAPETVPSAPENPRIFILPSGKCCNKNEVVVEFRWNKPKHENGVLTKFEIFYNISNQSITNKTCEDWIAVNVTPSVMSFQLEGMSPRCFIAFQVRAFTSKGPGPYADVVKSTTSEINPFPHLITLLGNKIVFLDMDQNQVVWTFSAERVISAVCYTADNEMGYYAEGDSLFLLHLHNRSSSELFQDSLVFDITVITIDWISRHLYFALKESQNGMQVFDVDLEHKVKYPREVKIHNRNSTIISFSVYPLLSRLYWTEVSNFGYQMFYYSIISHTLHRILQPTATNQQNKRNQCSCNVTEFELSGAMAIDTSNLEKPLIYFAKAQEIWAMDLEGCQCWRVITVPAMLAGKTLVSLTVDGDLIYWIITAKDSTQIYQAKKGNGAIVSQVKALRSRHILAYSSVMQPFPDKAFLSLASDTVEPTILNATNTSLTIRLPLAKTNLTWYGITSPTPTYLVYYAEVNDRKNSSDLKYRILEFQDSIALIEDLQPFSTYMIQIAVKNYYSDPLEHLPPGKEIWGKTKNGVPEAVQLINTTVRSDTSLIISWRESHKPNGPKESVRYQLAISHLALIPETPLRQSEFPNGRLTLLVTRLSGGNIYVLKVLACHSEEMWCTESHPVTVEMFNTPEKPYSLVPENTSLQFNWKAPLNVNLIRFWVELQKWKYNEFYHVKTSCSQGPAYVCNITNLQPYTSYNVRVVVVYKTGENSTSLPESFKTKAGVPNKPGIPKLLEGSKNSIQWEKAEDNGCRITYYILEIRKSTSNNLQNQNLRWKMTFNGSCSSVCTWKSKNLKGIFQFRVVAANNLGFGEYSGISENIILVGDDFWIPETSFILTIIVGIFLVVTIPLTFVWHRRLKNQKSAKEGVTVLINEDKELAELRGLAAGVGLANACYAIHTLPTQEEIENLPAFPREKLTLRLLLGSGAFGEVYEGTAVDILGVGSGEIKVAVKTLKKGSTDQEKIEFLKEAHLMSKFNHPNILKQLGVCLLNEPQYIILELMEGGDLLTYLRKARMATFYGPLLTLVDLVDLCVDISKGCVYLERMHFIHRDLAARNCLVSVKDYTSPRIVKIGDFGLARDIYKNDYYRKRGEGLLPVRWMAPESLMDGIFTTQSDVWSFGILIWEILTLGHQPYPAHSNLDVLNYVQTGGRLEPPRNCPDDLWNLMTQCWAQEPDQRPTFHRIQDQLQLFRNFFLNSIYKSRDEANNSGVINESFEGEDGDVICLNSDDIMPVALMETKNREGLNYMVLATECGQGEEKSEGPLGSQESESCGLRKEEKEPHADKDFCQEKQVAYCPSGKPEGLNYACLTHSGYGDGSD
# T24 sequence (Q9UHD2 whole entry): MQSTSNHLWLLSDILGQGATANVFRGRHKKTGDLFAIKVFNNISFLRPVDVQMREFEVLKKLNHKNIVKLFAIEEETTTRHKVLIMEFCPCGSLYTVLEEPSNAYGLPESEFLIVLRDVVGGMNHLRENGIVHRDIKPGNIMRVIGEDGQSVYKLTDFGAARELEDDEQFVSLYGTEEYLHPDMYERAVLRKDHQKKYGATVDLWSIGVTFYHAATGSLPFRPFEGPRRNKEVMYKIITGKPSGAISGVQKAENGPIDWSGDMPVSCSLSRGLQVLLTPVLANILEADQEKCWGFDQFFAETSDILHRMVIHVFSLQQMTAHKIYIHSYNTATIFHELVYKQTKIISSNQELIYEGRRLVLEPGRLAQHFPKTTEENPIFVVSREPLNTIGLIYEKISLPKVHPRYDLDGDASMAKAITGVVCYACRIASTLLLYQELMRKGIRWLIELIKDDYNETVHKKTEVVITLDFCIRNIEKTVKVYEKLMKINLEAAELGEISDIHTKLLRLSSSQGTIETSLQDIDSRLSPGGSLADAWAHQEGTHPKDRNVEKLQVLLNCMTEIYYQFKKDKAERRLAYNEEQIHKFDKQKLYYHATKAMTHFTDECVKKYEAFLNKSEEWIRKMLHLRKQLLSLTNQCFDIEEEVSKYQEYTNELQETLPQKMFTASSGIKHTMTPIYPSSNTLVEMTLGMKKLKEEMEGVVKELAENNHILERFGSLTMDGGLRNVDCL
# T18 sequence (Q92918 whole entry): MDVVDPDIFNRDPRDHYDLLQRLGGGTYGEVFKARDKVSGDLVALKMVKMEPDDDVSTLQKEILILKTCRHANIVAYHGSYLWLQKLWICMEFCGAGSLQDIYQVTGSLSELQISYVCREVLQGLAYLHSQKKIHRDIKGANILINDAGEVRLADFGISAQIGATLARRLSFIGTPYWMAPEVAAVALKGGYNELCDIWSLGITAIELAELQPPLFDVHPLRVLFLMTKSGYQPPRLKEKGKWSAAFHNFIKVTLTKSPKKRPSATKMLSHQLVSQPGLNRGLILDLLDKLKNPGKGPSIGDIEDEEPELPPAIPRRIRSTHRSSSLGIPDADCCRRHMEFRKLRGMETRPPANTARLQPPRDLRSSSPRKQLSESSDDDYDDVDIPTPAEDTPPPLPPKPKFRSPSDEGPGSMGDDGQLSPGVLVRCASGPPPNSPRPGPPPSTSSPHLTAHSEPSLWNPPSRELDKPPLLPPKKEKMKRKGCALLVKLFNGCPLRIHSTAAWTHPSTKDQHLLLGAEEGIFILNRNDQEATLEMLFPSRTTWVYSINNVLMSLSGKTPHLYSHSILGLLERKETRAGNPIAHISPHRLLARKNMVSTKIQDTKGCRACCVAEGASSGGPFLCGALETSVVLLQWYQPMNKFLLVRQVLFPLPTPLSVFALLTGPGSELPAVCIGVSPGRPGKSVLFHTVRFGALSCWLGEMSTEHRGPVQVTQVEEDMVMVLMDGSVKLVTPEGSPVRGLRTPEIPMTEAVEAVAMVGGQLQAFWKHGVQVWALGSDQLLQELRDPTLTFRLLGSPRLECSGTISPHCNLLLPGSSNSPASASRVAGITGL
# T5 sequence (Q9Y243 whole entry): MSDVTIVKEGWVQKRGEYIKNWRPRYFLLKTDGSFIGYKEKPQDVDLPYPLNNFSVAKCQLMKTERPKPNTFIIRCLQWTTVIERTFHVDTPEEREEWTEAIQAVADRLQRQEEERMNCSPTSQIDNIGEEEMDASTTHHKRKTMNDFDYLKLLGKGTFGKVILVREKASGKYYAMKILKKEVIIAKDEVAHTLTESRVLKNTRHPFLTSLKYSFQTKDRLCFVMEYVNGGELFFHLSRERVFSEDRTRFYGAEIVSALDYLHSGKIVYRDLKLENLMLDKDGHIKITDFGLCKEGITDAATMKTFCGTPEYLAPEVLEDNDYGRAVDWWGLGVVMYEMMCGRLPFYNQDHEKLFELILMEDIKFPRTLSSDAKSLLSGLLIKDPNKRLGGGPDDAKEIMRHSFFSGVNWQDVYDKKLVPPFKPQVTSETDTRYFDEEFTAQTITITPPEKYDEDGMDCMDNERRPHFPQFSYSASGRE
smiles,measurement,setting,value
"Cc1cc(/C=C/C#N)cc(C)c1Nc1ccnc(Nc2ccc(C#N)cc2)n1 [rilpivirine, (E)-4-((4-((4-(2-cyanoethenyl)-2,6-dimethylphenyl)amino)pyrimidin-2-yl)amino)benzonitrile]",remaining activity at 1 µM,[1],89%
same,remaining activity at 1 µM,[2],72%
same,remaining activity at 1 µM,[3],53%
same,remaining activity at 1 µM,[4],95%
same,remaining activity at 1 µM,[5],86%
same,remaining activity at 1 µM,[6],86%
same,remaining activity at 1 µM,[7],100%
same,remaining activity at 1 µM,[8],90%
same,remaining activity at 1 µM,[9],82%
same,remaining activity at 1 µM,[10],89%
same,remaining activity at 1 µM,[11],44%
same,remaining activity at 1 µM,[12],80%
same,remaining activity at 1 µM,[13],106%
same,remaining activity at 1 µM,[14],95%
same,remaining activity at 1 µM,[15],91%
same,remaining activity at 1 µM,[16],91%
same,remaining activity at 1 µM,[17],86%
same,remaining activity at 1 µM,[18],62%
same,remaining activity at 1 µM,[19],101%
same,remaining activity at 1 µM,[20],94%
same,remaining activity at 1 µM,[21],80%
same,remaining activity at 1 µM,[22],121%
same,remaining activity at 1 µM,[23],85%
same,remaining activity at 1 µM,[24],72%
same,remaining activity at 1 µM,[25],100%
same,remaining activity at 1 µM,[26],100%
same,remaining activity at 1 µM,[27],97%
same,remaining activity at 1 µM,[28],99%
same,remaining activity at 1 µM,[29],85%
same,remaining activity at 1 µM,[30],58%
same,remaining activity at 1 µM,[31],96%
same,remaining activity at 1 µM,[32],82%
same,remaining activity at 1 µM,[33],100%
same,remaining activity at 1 µM,[34],100%
same,remaining activity at 1 µM,[35],65%
same,remaining activity at 1 µM,[36],77%
same,remaining activity at 1 µM,[37],93%
same,remaining activity at 1 µM,[38],116%
same,remaining activity at 1 µM,[39],101%

# From paper PMC9954146, “Anti-Leukaemic Activity of Rilpivirine Is Mediated by Aurora A Kinase Inhibition” (Cancers, 2023)
